Among the data in US20250188075A1, “SUBSTITUTED HETEROCYCLIC CSNK1 INHIBITORS” (The Broad Institute, Inc., priority 2022, published 2025) are IC50 values, retold here.

One test deals with HCT 116 cells. The test is described as follows: HCT 116 cell proliferation assay, CTG. Type of test: cell-based. Particulars: Homo sapiens; HCT 116, CTG, 96 h; median; read-out: 2D-PROLI HCT 116 CTG 96 h, IC50 - [mol/l] (median). As to the method:
400 HCT 116 cells/30 μL/well were plated in growth medium (DMEM/Ham's F12, 10% FCS) in a 384-well plate (CORNING #3571) at day 1. Reference plate was seeded for time zero determination. All plates were incubated overnight 37° C. Day 2: test compound was added in 7-step dilution and incubate at 37° C. for 96 h. Day 2: time zero plate: 30 μL/well CTG solution (Promega Cell Titer Glo solution; catalog #G755B and G756B) were added, incubated for 30 minutes, read luminescence on PheraStar. Day 6: compound treated plates: 30 μL/well CTG solution (Promega Cell Titer Glo solution; catalog #G755B and G756B) were added, incubated for 30 minutes, luminescence was read on PheraStar. Proliferation was calculated after subtracting time zero luminescence values from day 6 values and comparing to untreated wells. The IC50 values were determined using the four parameter fit.

The subject of a further test is HT-29 cells. The test is described as follows: HT29 cell proliferation assay, CTG method. Type of test: cell-based. The conditions noted are these: Homo sapiens; HT-29, CTG, 96 h; median; read-out: 2D-PROLI HT-29 CTG 96 h, IC50 - [mol/l] (median). The protocol:
CELL PROLIFERATION ASSAY CTG METHOD, 384-well version: Day 1: plated 400 cells/30 μL/well in growth medium (DMEM/Ham's F12; (Biochrom; #FG 4815, mit stabilem Glutamin)+FCS (final: 10%); (Biochrom; #S 0415)) in 384-well black plates (Corning #3571). Plated sister wells in a separate plate for time zero determination. Incubated all plates overnight at 37° C. Day 2: added test compounds in serial dilutions using the HP D300 Digital Dispenser and incubated at 37° C. for 96 h. Measured time zero plate: add 30 μL/well CTG solution (Promega CellTiter-Glo solution (catalog #G7573)) to wells in time zero plate; incubated for 2 minutes in a orbital shaker to induce cell lysis; allowed the plate to incubate at room temperature for additional 10 min to stabilize luminescent signal and read luminescence on PheraStar (rapid mode—0.02 sec/well; GAIN 3000). Day 6: Added 30 μL/well CTG solution to all test wells, incubated for 2 minutes in a orbital shaker to induce cell lysis; allowed the plate to incubate at room temperature for additional 10 min to stabilize luminescent signal and read luminescence on PheraStar (rapid mode—0.02 sec/well; GAIN 3000 Proliferation IC50s were calculated using the DRC application in ShiNy Analysis Platform-SNAP.”

The target of the next test is human CSNK1D (Homo sapiens (Human), UniProt P48730). The test is described as follows: CSNK1D assay (ADP-Glo, 1 μM ATP). Format: biochemical. The conditions noted are these: median, read-out: CSNK1D IC50 [mol/l] (median). As to the method: CSNK1D-inhibitory activity of compounds of the present invention in presence of 1 μM adenosine-tri-phosphate (ATP) was quantified employing the CSNK1D assay as described in the following paragraphs. In essence, the enzyme activity is measured by quantification of the adenosine-di-phosphate (ADP), which is generated as a co-product of the enzyme reaction, via the “ADP-Glo™ Kinase Assay” kit from the company Promega. This detection system works as follows: In a first step the ATP not consumed in the kinase reaction is quantitatively converted to CAMP employing an adenylate cyclase (“ADP-Glo-reagent”), then the adenylate cyclase is stopped and the ADP generated in the kinase reaction converted to ATP which generates in a luciferase-based reaction a glow-luminescence signal (“Kinase Detection Reagent”).
human CSNK1D, sequence (P48730 whole entry): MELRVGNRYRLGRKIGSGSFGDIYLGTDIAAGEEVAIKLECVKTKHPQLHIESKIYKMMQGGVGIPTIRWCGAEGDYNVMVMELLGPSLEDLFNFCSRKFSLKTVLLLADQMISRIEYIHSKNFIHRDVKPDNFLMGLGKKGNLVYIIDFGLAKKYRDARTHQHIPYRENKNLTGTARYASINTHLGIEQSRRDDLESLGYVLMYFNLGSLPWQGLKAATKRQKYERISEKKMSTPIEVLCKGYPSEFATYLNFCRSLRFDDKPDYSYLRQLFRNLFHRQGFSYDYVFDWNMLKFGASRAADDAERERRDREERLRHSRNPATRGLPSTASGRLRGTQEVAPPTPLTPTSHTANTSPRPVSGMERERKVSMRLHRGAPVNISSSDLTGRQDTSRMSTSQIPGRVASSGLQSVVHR
Recombinant fusion protein of N-terminal Glutathion-S-Transferase (GST) and full-length human CSNK1D, expressed by baculovirus infected insect cells and purified via Glutathion affinity chromatography, was purchased from Life Technologies (product no. PV3665) and used as enzyme. As substrate for the kinase reaction the biotinylated peptide Btn-Ahx-SGSEGDSESGEEEG (C-terminus in amide form) was used which can be purchased e.g. from the company Biosyntan (Berlin-Buch, Germany).
For the assay 50 nl of a 100-fold concentrated solution of the test compound in DMSO was pipetted into a white 1536-well microtiter plate (Greiner Bio-One, Frickenhausen, Germany), 2 μL of a solution of CSNK1D in aqueous assay buffer [50 mM HEPES pH 7.5, 10% (v/v) glycerol, 10 mM MgCl2, 50 mM NaCl, 1 mM dithiothreitol, 0.01% (w/v) bovine serum albumin, 0.01% (v/v) Triton X-100] were added and the mixture was incubated for 15 min at 22° C. to allow pre-binding of the test compounds to the enzyme before the start of the kinase reaction. Then the kinase reaction was started by the addition of 3 μL of a solution of ATP (1.67 μM=>final conc. in the 5 μL assay volume is 1 μM) and peptide substrate (50 μM=>final conc. in the 5 μL assay volume is 30 μM) in assay buffer and the resulting mixture was incubated for a reaction time of 30 min at 22° C. The concentration of CSNK1D was adjusted depending of the activity of the enzyme lot and was chosen appropriate to have the assay in the linear range, a typical concentration is about 0.5 ng/μL. The reaction was stopped by the addition of 2.5 μL of “ADP-Glo-reagent” (1:1.5 fold diluted with water) and the resulting mixture was incubated at 22° C. for 1 h to convert the ATP not consumed in the kinase reaction completely to CAMP. Subsequently 2.5 μL of the “kinase detection reagent” (1.2 fold more concentrated than recommended by the producer) were added, the resulting mixture was incubated at 22° C. for 1 h and then the luminescence measured with a suitable measurement instrument (e.g. Viewlux™ from Perkin-Elmer). The amount of emitted light was taken as a measure for the amount of ADP generated and thereby for the activity of the CSNK1D.
The data were normalised (enzyme reaction without inhibitor=0% inhibition, all other assay components but no enzyme=100% inhibition).

For the compound `O=C(Cc1cnc2ccccn12)Nc1cc(-c2[nH]c3cccnc3c2-c2ccccn2)ccn1` [Example 1, 2-imidazo[1,2-a]pyridin-3-yl-N-[4-[3-(2-pyridyl)-^1H-pyrrolo[3,2-b]pyridin-2-yl]-2-pyridyl]acetamide], the IC50 in the test with HCT 116 cells is 3870 nM; in the test on HT-29 cells it was 2670 nM; at human CSNK1D, 11.4 nM.
For the compound `Cn1cc(CC(=O)Nc2cc(-c3[nH]c4cccnc4c3-c3ccccn3)ccn2)cn1` [Example 2, 2-(1-methylpyrazol-4-yl)-N-[4-[3-(2-pyridyl)-^1H-pyrrolo[3,2-b]pyridin-2-yl]-2-pyridyl]acetamide], the values for the IC50 with HCT 116 cells, in the test with HT-29 cells and at human CSNK1D were 3600 nM, 2670 nM and 11.1 nM, respectively.
On the same counts, the results for `Cc1nc(CC(=O)Nc2cc(-c3[nH]c4cccnc4c3-c3ccccn3)ccn2)cs1` [Example 3, 2-(2-methylthiazol-4-yl)-N-[4-[3-(2-pyridyl)-^1H-pyrrolo[3,2-b]pyridin-2-yl]-2-pyridyl]acetamide] are 359 nM, 445 nM and 5.01 nM.
Turning to `O=C(Cc1cnco1)Nc1cc(-c2[nH]c3cccnc3c2-c2ccccn2)ccn1` [Example 4], the IC50 in the test with HCT 116 cells came out at 535 nM; with HT-29 cells, 588 nM.
For the compound `Cn1cnc(CC(=O)Nc2cc(-c3[nH]c4cccnc4c3-c3ccccn3)ccn2)c1` [Example 5, 2-(1-methylimidazol-4-yl)-N-[4-[3-(2-pyridyl)-^1H-pyrrolo[3,2-b]pyridin-2-yl]-2-pyridyl]acetamide], the IC50 in the test on HCT 116 cells is 2790 nM; with HT-29 cells, 3420 nM; at human CSNK1D, 13.1 nM.
For `O=C(Cc1cnc2ccccc2n1)Nc1cc(-c2[nH]c3cccnc3c2-c2ccccn2)ccn1` [Example 6, N-[4-[3-(2-pyridyl)-^1H-pyrrolo[3,2-b]pyridin-2-yl]-2-pyridyl]-2-quinoxalin-2-yl-acetamide] the same measures were 91.1 nM, 125 nM and 3.44 nM.
In the case of `Cc1nn(C)cc1CC(=O)Nc1cc(-c2[nH]c3cccnc3c2-c2ccccn2)ccn1` [Example 9, 2-(1,3-dimethylpyrazol-4-yl)-N-[4-[3-(2-pyridyl)-^1H-pyrrolo[3,2-b]pyridin-2-yl]-2-pyridyl]acetamide], the IC50 with HCT 116 cells came to 817 nM; in the test with HT-29 cells it was 860 nM; at human CSNK1D it was 5.66 nM.
With `O=C(Cc1ccon1)Nc1cc(-c2[nH]c3cccnc3c2-c2ccccn2)ccn1` [Example 10, 2-isoxazol-3-yl-N-[4-[3-(2-pyridyl)-^1H-pyrrolo[3,2-b]pyridin-2-yl]-2-pyridyl]acetamide], the IC50 in the test with HCT 116 cells stood at 848 nM; with HT-29 cells, 797 nM; on human CSNK1D, 5.6 nM.
For `Cc1ocnc1CC(=O)Nc1cc(-c2[nH]c3cccnc3c2-c2ccccn2)ccn1` [Example 11, 2-(5-methyloxazol-4-yl)-N-[4-[3-(2-pyridyl)-^1H-pyrrolo[3,2-b]pyridin-2-yl]-2-pyridyl]acetamide] the same measures were 964 nM, 1410 nM and 8.09 nM.
As for `Cc1noc(C)c1CC(=O)Nc1cc(-c2[nH]c3cccnc3c2-c2ccccn2)ccn1` [Example 12, 2-(3,5-dimethylisoxazol-4-yl)-N-[4-[3-(2-pyridyl)-^1H-pyrrolo[3,2-b]pyridin-2-yl]-2-pyridyl]acetamide], the IC50 was 1080 nM with HCT 116 cells, 1190 nM with HT-29 cells and 5.02 nM on human CSNK1D.
As to `Cc1cc(CC(=O)Nc2cc(-c3[nH]c4cccnc4c3-c3ccccn3)ccn2)on1` [Example 13, 2-(3-methylisoxazol-5-yl)-N-[4-[3-(2-pyridyl)-^1H-pyrrolo[3,2-b]pyridin-2-yl]-2-pyridyl]acetamide], the values for the IC50 in the test with HCT 116 cells, in the test with HT-29 cells and at human CSNK1D were 626 nM, 442 nM and 5.68 nM, respectively.
On the same counts, the results for `Cc1cc(CC(=O)Nc2cc(-c3[nH]c4cccnc4c3-c3ccccn3)ccn2)n(C)n1` [Example 14] are 544 nM, 508 nM and 4.88 nM.
In the case of `O=C(Cc1cc2ccccn2n1)Nc1cc(-c2[nH]c3cccnc3c2-c2ccccn2)ccn1` [Example 15, 2-pyrazolo[1,5-a]pyridin-2-yl-N-[4-[3-(2-pyridyl)-^1H-pyrrolo[3,2-b]pyridin-2-yl]-2-pyridyl]acetamide], the values for the IC50 in the test with HCT 116 cells, in the test on HT-29 cells and at human CSNK1D were 171 nM, 149 nM and 3.75 nM, respectively.
On the same counts, the results for `Cc1cc(CC(=O)Nc2cc(-c3[nH]c4cccnc4c3-c3ccccn3)ccn2)nn1C` [Example 16, 2-(1,5-dimethylpyrazol-3-yl)-N-[4-[3-(2-pyridyl)-^1H-pyrrolo[3,2-b]pyridin-2-yl]-2-pyridyl]acetamide] are 706 nM, 627 nM and 6.57 nM.
Take `Cc1nn(C)c(C)c1CC(=O)Nc1cc(-c2[nH]c3cccnc3c2-c2ccccn2)ccn1` [Example 17, N-[4-[3-(2-pyridyl)-^1H-pyrrolo[3,2-b]pyridin-2-yl]-2-pyridyl]-2-(1,3,5-trimethylpyrazol-4-yl)acetamide]: the IC50 in the test on HCT 116 cells worked out at 1030 nM; in the test on HT-29 cells it was 1180 nM; at human CSNK1D it was 6.87 nM.
On the same counts, the results for `Cc1nc(C)c(CC(=O)Nc2cc(-c3[nH]c4cccnc4c3-c3ccccn3)ccn2)s1` [Example 18, 2-(2,4-dimethylthiazol-5-yl)-N-[4-[3-(2-pyridyl)-^1H-pyrrolo[3,2-b]pyridin-2-yl]-2-pyridyl]acetamide] are 179 nM, 220 nM and 3.8 nM.
Regarding `Cn1cc(C(CC(F)F)C(=O)Nc2cc(-c3[nH]c4cccnc4c3-c3ccccn3)ccn2)cn1` (centres unmarked) [Example 19, 4,4-difluoro-2-(1-methylpyrazol-4-yl)-N-[4-[3-(2-pyridyl)-^1H-pyrrolo[3,2-b]pyridin-2-yl]-2-pyridyl]butanamide], the IC50 in the test on HCT 116 cells amounted to 1680 nM; in the test with HT-29 cells, 1240 nM; on human CSNK1D, 13.9 nM.
Turning to `O=C(Cc1ccn(CC(F)(F)F)n1)Nc1cc(-c2[nH]c3cccnc3c2-c2ccccn2)ccn1` [Example 20, N-[4-[3-(2-pyridyl)-^1H-pyrrolo[3,2-b]pyridin-2-yl]-2-pyridyl]-2-[1-(2,2,2-trifluoroethyl)pyrazol-3-yl]acetamide], the figures for the IC50 in the test on HCT 116 cells, in the test on HT-29 cells and at human CSNK1D were 344 nM, 341 nM and 4.93 nM, respectively.
